Tests used:
[1] = target: GDP-bound NRAS wild-type protein (Homo sapiens, UniProt P01111); experiment: Binding to NRAS by surface plasmon resonance (SPR), Single Cycle Kinetics; conditions: SPR, GDP-bound NRAS wild-type vs GDP-bound KRAS wild-type
[2] = target: GDP-bound HRAS wild-type protein (Homo sapiens, UniProt P01112); experiment: Binding to HRAS by surface plasmon resonance (SPR), Single Cycle Kinetics; conditions: SPR, GDP-bound HRAS wild-type vs GDP-bound KRAS wild-type
GDP-bound HRAS wild-type protein, sequence (P01112 whole entry): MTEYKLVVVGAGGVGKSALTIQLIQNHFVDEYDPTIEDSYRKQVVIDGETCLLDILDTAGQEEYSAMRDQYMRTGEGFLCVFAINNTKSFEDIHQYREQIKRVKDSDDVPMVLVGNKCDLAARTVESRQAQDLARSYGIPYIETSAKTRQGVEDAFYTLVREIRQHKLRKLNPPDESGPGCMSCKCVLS

GDP-bound NRAS wild-type protein, sequence (P01111 whole entry): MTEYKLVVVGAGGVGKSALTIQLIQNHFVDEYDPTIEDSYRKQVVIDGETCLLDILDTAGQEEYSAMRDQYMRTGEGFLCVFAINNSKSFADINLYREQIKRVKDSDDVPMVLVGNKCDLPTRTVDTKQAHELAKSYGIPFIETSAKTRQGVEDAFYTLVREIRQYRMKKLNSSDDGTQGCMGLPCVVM

Row | SMILES | NRAS/KRAS (ratio of KD value with respect to NRAS to KD value with respect to KRAS) [1] | HRAS/KRAS (ratio of KD value with respect to HRAS to KD value with respect to KRAS) [2]
1 | CCC[C@H]1C(=O)N[C@@H]([C@@H](C)CC)C(=O)N(C2CC2)CC(=O)N(C)[C@H]2C/C=C\CCN(C2=O)[C@@H](Cc2ccc(C)cc2)C(=O)N(C)CC(=O)N[C@@H](CCc2ccc(C(F)(F)F)c(OC)c2)C(=O)N2C[C@H](OCC)C[C@H]2C(=O)N(C)C2(CCC2)C(=O)N(C)[C@@H](C2CCCC2)C(=O)N(C)[C@H](C(=O)N(C)C)CC(=O)N1C [PP2328, (2S,8S,12R,14S,20S,23S,27S,30S,36S,38Z)-20-cyclopentyl-32-cyclopropyl-12-ethoxy-8-[2-[3-methoxy-4-(trifluoromethyl)phenyl]ethyl]-N,N,4,16,19,22,26,35-octamethyl-30-[(1S)-1-methylpropyl]-3,6,9,15,18,21,25,28,31,34,42-undecaoxo-27-propyl-2-(p-tolylmethyl)spiro[1,4,7,10,16,19,22,26,29,32,35-undecazatricyclo[34.5.1.0^10,14]dotetracont-38-ene-17,1′-cyclobutane]-23-carboxamide] | A (a compound having 10 or more and less than 20 is denoted as A) | A (a compound having 10 or more and less than 20 is denoted as A)
2 | CCC[C@H]1C(=O)N[C@@H]([C@@H](C)CC)C(=O)N2CCC[C@H]2C(=O)N(C)[C@H]2C/C=C\CCN(C2=O)[C@@H](Cc2ccc(C)cc2)C(=O)N(C)CC(=O)N[C@@H](CCc2ccc(C(F)(F)F)c(OC)c2)C(=O)N2C[C@H](OCC)C[C@H]2C(=O)N(C)C2(CCC2)C(=O)N(C)[C@@H](C(CC)CC)C(=O)N(C)[C@H](C(=O)N(C)C)CC(=O)N1C [PP2329] | A (a compound having 10 or more and less than 20 is denoted as A) | A (a compound having 10 or more and less than 20 is denoted as A)
3 | CCCOC[C@H]1C(=O)N[C@@H]([C@@H](C)CC)C(=O)N(C2CC2)CC(=O)N(C)[C@H]2C/C=C\CCN(C2=O)[C@@H](Cc2ccc(C)cc2)C(=O)N(C)CC(=O)N[C@@H](CCc2ccc(C(F)(F)F)c(OC)c2)C(=O)N2C[C@H](OCC)C[C@H]2C(=O)N(C)C2(CCC2)C(=O)N(C)[C@@H](C2CCCC2)C(=O)N(C)[C@H](C(=O)N(C)C)CC(=O)N1C [PP2330] | A (a compound having 10 or more and less than 20 is denoted as A) | A (a compound having 10 or more and less than 20 is denoted as A)
4 | CCCOC[C@H]1C(=O)N[C@@H]([C@@H](C)CC)C(=O)N2CCC[C@H]2C(=O)N(C)[C@H]2C/C=C\CCN(C2=O)[C@@H](Cc2ccc(C)cc2)C(=O)N(C)CC(=O)N[C@@H](CCc2ccc(C(F)(F)F)c(OC)c2)C(=O)N2C[C@H](OCC)C[C@H]2C(=O)N(C)C2(CCC2)C(=O)N(C)[C@@H](C(CC)CC)C(=O)N(C)[C@H](C(=O)N(C)C)CC(=O)N1C [PP2331] | AA (a compound having 20 or more is denoted as AA) | A (a compound having 10 or more and less than 20 is denoted as A)
5 | CCC[C@H]1C(=O)N[C@@H]([C@@H](C)CC)C(=O)N2CCC[C@H]2C(=O)N(C)[C@H]2C/C=C\CCN(C2=O)[C@@H](Cc2ccc(C)cc2)C(=O)N(C)CC(=O)N[C@@H](CCc2ccc(C(F)(F)F)c(OC)c2)C(=O)N2C[C@H](OCC)C[C@H]2C(=O)N(C)C2(CCC2)C(=O)N(C)[C@@H](C2CCCC2)C(=O)N(C)[C@H](C(=O)N(C)C)CC(=O)N1C [PP2332] | A (a compound having 10 or more and less than 20 is denoted as A) | B (a compound having 3 or more and less than 10 is denoted as B)
6 | CCC[C@H]1C(=O)N[C@@H]([C@@H](C)CC)C(=O)N(C)CC(=O)N(C)[C@H]2C/C=C\CCN(C2=O)[C@@H](CC2CCCCC2)C(=O)N(C)CC(=O)N[C@@H](CCc2ccc(C(F)(F)F)c(OC)c2)C(=O)N2C[C@H](OCC)C[C@H]2C(=O)N(C)C2(CCC2)C(=O)N(C)[C@@H](C(CC)CC)C(=O)N(C)[C@H](C(=O)N(C)C)CC(=O)N1C [PP2333] | A (a compound having 10 or more and less than 20 is denoted as A) | A (a compound having 10 or more and less than 20 is denoted as A)
7 | CCCOC[C@H]1C(=O)N[C@@H]([C@@H](C)CC)C(=O)N2CCC[C@H]2C(=O)N(C)[C@H]2C/C=C\CCN(C2=O)[C@@H](Cc2ccc(C)cc2)C(=O)N(C)CC(=O)N[C@@H](CCc2ccc(C(F)(F)F)c(OC)c2)C(=O)N2C[C@H](OCC)C[C@H]2C(=O)N(C)C2(CCC2)C(=O)N(C)[C@@H](C2CCCC2)C(=O)N(C)[C@H](C(=O)N(C)C)CC(=O)N1C [PP2334] | A (a compound having 10 or more and less than 20 is denoted as A) | B (a compound having 3 or more and less than 10 is denoted as B)
8 | CCO[C@@H]1C[C@H]2C(=O)N(C)C3(CCC3)C(=O)N(C)[C@@H](C(CC)CC)C(=O)N(C)[C@H](C(=O)N(C)C)CC(=O)N(C)[C@@H](COC)C(=O)N[C@@H]([C@@H](C)CC)C(=O)N(C)CC(=O)N(C)[C@H]3C/C=C\CCN(C3=O)[C@@H](CC3CCCCC3)C(=O)N(C)CC(=O)N[C@@H](CCc3ccc(C(F)(F)F)c(OC)c3)C(=O)N2C1 [PP2335] | A (a compound having 10 or more and less than 20 is denoted as A) | A (a compound having 10 or more and less than 20 is denoted as A)
9 | CCC[C@H]1C(=O)N[C@@H]([C@@H](C)CC)C(=O)N(C)CC(=O)N(C)[C@H]2C/C=C\CCN(C2=O)[C@@H](CC2CCCCC2)C(=O)N(C)CC(=O)N[C@@H](CCc2ccc(C(F)(F)F)c(OC)c2)C(=O)N2C[C@H](OCC)C[C@H]2C(=O)N(C)C2(CCC2)C(=O)N(C)[C@@H](C2CCCC2)C(=O)N(C)[C@H](C(=O)N(C)C)CC(=O)N1C [PP2336] | A (a compound having 10 or more and less than 20 is denoted as A) | A (a compound having 10 or more and less than 20 is denoted as A)
10 | CCC[C@H]1C(=O)N[C@@H]([C@@H](C)CC)C(=O)N(C2CC2)CC(=O)N(C)[C@H]2C/C=C\CCN(C2=O)[C@@H](CC2CCCCC2)C(=O)N(C)CC(=O)N[C@@H](CCc2ccc(C(F)(F)F)c(OC)c2)C(=O)N2C[C@H](OCC)C[C@H]2C(=O)N(C)C2(CCC2)C(=O)N(C)[C@@H](C(CC)CC)C(=O)N(C)[C@H](C(=O)N(C)C)CC(=O)N1C [PP2337] | A (a compound having 10 or more and less than 20 is denoted as A) | A (a compound having 10 or more and less than 20 is denoted as A)
11 | CCO[C@@H]1C[C@H]2C(=O)N(C)C3(CCC3)C(=O)N(C)[C@@H](C(CC)CC)C(=O)N(C)[C@H](C(=O)N(C)C)CC(=O)N(C)[C@@H](COC)C(=O)N[C@@H]([C@@H](C)CC)C(=O)N(C3CC3)CC(=O)N(C)[C@H]3C/C=C\CCN(C3=O)[C@@H](CC3CCCCC3)C(=O)N(C)CC(=O)N[C@@H](CCc3ccc(C(F)(F)F)c(OC)c3)C(=O)N2C1 [PP2339] | A (a compound having 10 or more and less than 20 is denoted as A) | A (a compound having 10 or more and less than 20 is denoted as A)

Reference: patent US20250230193A1, “CYCLIC COMPOUND HAVING SELECTIVE KRAS INHIBITORY EFFECT ON HRAS AND NRAS” (CHUGAI SEIYAKU KABUSHIKI KAISHA, priority 2022, published 2025)
